Test results taken from ChEMBL document CHEMBL1136599, “Design, synthesis, and structure-activity relationships of substituted piperazinone-based transition state factor Xa inhibitors” (Bioorg Med Chem Lett, 2003).

Tests used:
[1] = molecular target: Coagulation factor X (Homo sapiens, UniProt P00742); experiment: In vitro inhibitory activity against factor Xa
[2] = molecular target: Prothrombin (Homo sapiens, UniProt P00734); experiment: In vitro inhibitory activity against serine protease thrombin

Sequence of Coagulation factor X (P00742 41-179 limits assumed): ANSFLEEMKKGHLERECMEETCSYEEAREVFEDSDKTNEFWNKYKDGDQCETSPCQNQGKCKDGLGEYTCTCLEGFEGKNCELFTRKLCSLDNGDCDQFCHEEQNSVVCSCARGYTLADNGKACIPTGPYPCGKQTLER
Sequence of Coagulation factor X (P00742 235-488 limits assumed): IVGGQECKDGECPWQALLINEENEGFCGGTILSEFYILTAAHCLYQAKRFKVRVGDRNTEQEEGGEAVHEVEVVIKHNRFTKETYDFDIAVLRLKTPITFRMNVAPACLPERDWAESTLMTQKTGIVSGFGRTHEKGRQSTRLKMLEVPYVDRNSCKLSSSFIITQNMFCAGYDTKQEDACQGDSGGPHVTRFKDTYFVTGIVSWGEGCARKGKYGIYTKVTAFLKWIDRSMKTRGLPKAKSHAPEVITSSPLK

IC50 [1] [nM] | IC50 [2] [nM] | Structure (SMILES)
59 | 2000 | N=C(N)NCCC[C@H](NC(=O)CN1CCN(S(=O)(=O)Cc2ccccc2)[C@H](Cc2ccccc2)C1=O)C(=O)c1nccs1
4 | 5000 | N=C(N)NCCC[C@H](NC(=O)CN1CCN(S(=O)(=O)Cc2ccccc2)[C@H](CCC(=O)O)C1=O)C(=O)c1nccs1
8 | 5000 | COC(=O)C[C@@H]1C(=O)N(CC(=O)N[C@@H](CCCNC(=N)N)C(=O)c2nccs2)CCN1S(=O)(=O)Cc1ccccc1
144 | 2000 | CS(=O)(=O)N1CCN(CC(=O)N[C@@H](CCCN=C(N)N)C(=O)c2nccs2)C(=O)[C@H]1Cc1ccccc1
85 | 1000 | COC(=O)C[C@H]1C(=O)N(CC(=O)N[C@@H](CCCNC(=N)N)C(=O)c2nccs2)CCN1S(=O)(=O)Cc1ccccc1
888 | 2000 | N=C(N)NCCC[C@H](NC(=O)CN1CCN[C@@H](Cc2ccccc2)C1=O)C(=O)c1nccs1
0.9 | 507 | N=C(N)NCCC[C@H](NC(=O)CN1CCN(S(=O)(=O)Cc2ccccc2)[C@@H](Cc2ccccc2)C1=O)C(=O)c1nccs1
370 | 325000 | N=C(N)NCCC[C@H](NC(=O)CN1CCN(S(=O)(=O)Cc2ccccc2)[C@@H](CC(=O)O)C1=O)C(=O)c1nccs1
31 | 40000 | N=C(N)NCCC[C@H](NC(=O)CN1CCN(S(=O)(=O)Cc2ccccc2)[C@H](CC(=O)O)C1=O)C(=O)c1nccs1
13 |  | N=C(N)NCCC[C@@H](NS(=O)(=O)Cc1ccccc1)C(=O)NC(=O)CN[C@H](CCCNC(=N)N)C(=O)c1nccs1
3 | 12000 | N=C(N)NCCC[C@H](NC(=O)CN1CCN(S(=O)(=O)Cc2ccccc2)[C@@H](CCCNC(=N)N)C1=O)C(=O)c1nccs1
2 |  | N=C(N)NCCCC(NC(=O)CNC(=O)[C@@H](Cc1ccccc1)NS(=O)(=O)Cc1ccccc1)C(=O)c1nccs1 (stereo not given in full)
154 | 60000 | N=C(N)NCCC[C@H](NC(=O)CN1CCN(S(=O)(=O)Cc2ccccc2)[C@@H](CC(=O)N2CCCCC2)C1=O)C(=O)c1nccs1
20 | 12000 | N=C(N)NCCC[C@H](NC(=O)CN1CCN[C@@H](CCCNC(=N)N)C1=O)C(=O)c1nccs1
307 | 140000 | N=C(N)NCCC[C@H](NC(=O)CN1C=CN[C@@H](CCCNC(=N)N)C1=O)C(=O)c1nccs1
7 | 3000 | CCOC(=O)C[C@@H]1C(=O)N(CC(=O)N[C@@H](CCCN=C(N)N)C(=O)c2nccs2)CCN1S(=O)(=O)Cc1ccccc1
4 | 3000 | N=C(N)NCCC[C@H](NC(=O)CN1CCN(S(=O)(=O)Cc2ccccc2)[C@H](CCC(=O)N2CCCCC2)C1=O)C(=O)c1nccs1
37 | 8000 | N=C(N)NCCC[C@H](NC(=O)CN1CCN(S(=O)(=O)Cc2ccccc2)[C@H](CC(=O)N2CCCCC2)C1=O)C(=O)c1nccs1
21 | 200000 | N=C(N)NCCC[C@H](NC(=O)CN1CC(=O)N[C@H](CCCNC(=N)N)C1=O)C(=O)c1nccs1
32 | 4000 | CCOC(=O)C[C@H]1C(=O)N(CC(=O)N[C@@H](CCCN=C(N)N)C(=O)c2nccs2)CCN1S(=O)(=O)Cc1ccccc1
1 | 2000 | COC(=O)CC[C@@H]1C(=O)N(CC(=O)N[C@@H](CCCNC(=N)N)C(=O)c2nccs2)CCN1S(=O)(=O)Cc1ccccc1
459 | 642 | CS(=O)(=O)N1CCN(CC(=O)N[C@@H](CCCNC(=N)N)C(=O)c2nccs2)C(=O)[C@@H]1Cc1ccccc1
13 | 3000 | N=C(N)NCCC[C@H](NC(=O)CN1CCN(S(=O)(=O)Cc2ccccc2)[C@H](CCCNC(=N)N)C1=O)C(=O)c1nccs1
11 | 150000 | N=C(N)NCCC[C@H](NC(=O)CN1CC(=O)N[C@@H](CCCNC(=N)N)C1=O)C(=O)c1nccs1
 | 22000 | N=C(N)NCCC[C@H](NC(=O)CN1CCN[C@H](Cc2ccccc2)C1=O)C(=O)c1nccs1
6 | 2000 | N=C(N)NCCC[C@H](NC(=O)CN1CCN(S(=O)(=O)Cc2ccccc2)[C@H](CO)C1=O)C(=O)c1nccs1
4 |  | N=C(N)NCCCC(NC(=O)CN1CCN(S(=O)(=O)Cc2ccccc2)CC1=O)C(=O)c1nccs1 (stereo not given)
